For experiment [1], the target named is T1, Sodium/glucose cotransporter 2 (Homo sapiens, UniProt P31639).
T1 sequence (P31639 whole entry): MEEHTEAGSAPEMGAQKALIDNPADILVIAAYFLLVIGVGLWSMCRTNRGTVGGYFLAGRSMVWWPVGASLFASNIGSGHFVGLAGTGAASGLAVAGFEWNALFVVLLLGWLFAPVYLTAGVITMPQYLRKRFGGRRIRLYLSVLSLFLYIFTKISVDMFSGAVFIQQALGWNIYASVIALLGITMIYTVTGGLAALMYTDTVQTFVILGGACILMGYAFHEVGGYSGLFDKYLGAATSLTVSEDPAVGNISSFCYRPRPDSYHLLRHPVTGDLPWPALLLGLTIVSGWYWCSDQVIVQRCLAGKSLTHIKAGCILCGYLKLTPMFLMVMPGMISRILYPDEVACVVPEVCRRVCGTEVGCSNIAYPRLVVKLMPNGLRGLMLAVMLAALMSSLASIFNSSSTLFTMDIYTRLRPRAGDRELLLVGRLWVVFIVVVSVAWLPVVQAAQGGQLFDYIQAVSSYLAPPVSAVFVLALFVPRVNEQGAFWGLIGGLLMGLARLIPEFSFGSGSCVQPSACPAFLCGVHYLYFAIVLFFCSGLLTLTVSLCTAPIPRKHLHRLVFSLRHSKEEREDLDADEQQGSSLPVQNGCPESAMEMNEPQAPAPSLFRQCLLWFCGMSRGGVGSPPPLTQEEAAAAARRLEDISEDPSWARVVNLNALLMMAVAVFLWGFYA
Nature of the experiment: (§1) These cell lines transport 14C-labelled alpha-methyl-glucopyranoside (14C-AMG, Amersham) into the interior of the cell in sodium-dependent manner.The SGLT-2 assay is carried out as follows: CHO-hSGLT2 cells are cultivated in Ham's F12 Medium (BioWhittaker) with 10% foetal calf serum and 250 ug/mL zeocin (Invitrogen), and HEK293-hSGLT2 cells are cultivated in DMEM medium with 10% foetal calf serum and 250 ug/mL zeocin (Invitrogen). The cells are detached from the culture flasks by washing twice with PBS. Format: cell-based.

Experiment [2] deals with T2, Sodium/glucose cotransporter 1 (Homo sapiens, UniProt P13866).
T2 sequence (P13866 whole entry): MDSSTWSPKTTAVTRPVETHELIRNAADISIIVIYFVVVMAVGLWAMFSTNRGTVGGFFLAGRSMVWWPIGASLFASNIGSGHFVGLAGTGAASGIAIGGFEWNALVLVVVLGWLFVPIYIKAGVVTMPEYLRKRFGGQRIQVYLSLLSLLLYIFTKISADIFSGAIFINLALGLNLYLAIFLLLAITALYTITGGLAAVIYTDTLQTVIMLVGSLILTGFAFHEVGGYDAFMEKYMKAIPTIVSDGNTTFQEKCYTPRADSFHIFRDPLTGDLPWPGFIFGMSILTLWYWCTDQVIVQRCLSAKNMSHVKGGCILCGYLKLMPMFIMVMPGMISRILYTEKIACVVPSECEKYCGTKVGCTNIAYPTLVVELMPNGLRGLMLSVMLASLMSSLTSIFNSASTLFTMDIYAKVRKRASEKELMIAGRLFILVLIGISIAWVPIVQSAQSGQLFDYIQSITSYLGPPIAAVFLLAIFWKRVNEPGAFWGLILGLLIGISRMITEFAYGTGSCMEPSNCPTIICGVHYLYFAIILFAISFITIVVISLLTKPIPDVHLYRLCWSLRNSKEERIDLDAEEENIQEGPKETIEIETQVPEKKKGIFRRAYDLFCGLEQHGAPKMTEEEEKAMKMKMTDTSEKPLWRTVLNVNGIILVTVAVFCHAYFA
Described as §1. It is filed as cell-based.

Each structure is given as a SMILES string. pIC50: −log10 of the molar value.

For the molecule `CCc1ccc([C@@H]2O[C@H](COC(=O)OC(C)(C)C)[C@@H](O)[C@H](O)[C@H]2O)cc1Cc1ccc2c(c1)OCCO2`, the pIC50 is 7.05 in experiment [1] and 6.73 in experiment [2].

Regarding `CCc1ccc([C@@H]2O[C@H](COP(=O)(O)O)[C@@H](O)[C@H](O)[C@H]2O)cc1Cc1ccc2c(c1)OCCO2`, the pIC50 in experiment [1] was 8.62; in experiment [2] it was 7.05.

The values are drawn from ChEMBL document CHEMBL3639144, “Glycoside derivatives and uses thereof” (2013).
